One experiment has as its system Danio rerio. Nature of the experiment: In Vivo Angiogenesis Dose-Response Confirmation. [Related pubchem assays: 732 (Assay preceding this confirmatory assay.)]. The format is functional, organism-based.
Experiment [1] deals with Peroxisome proliferator-activated receptor gamma/Nuclear receptor corepressor 2 (Homo sapiens, UniProt P37231+Q9Y618). Nature of the experiment: Counterscreen for NR2E3 inverse agonists: TR-FRET-based biochemical high throughput dose response assay to identify inverse agonists of the interaction between peroxisome proliferator-activated receptor gamma (PPARg) and nuclear receptor co-repressor 2 (NCOR2). The format is functional. In general terms: The purpose of a counterscreen is to sort out artefacts and off-target activity.
Peroxisome proliferator-activated receptor gamma/Nuclear receptor corepressor 2, sequence (P37231 whole entry): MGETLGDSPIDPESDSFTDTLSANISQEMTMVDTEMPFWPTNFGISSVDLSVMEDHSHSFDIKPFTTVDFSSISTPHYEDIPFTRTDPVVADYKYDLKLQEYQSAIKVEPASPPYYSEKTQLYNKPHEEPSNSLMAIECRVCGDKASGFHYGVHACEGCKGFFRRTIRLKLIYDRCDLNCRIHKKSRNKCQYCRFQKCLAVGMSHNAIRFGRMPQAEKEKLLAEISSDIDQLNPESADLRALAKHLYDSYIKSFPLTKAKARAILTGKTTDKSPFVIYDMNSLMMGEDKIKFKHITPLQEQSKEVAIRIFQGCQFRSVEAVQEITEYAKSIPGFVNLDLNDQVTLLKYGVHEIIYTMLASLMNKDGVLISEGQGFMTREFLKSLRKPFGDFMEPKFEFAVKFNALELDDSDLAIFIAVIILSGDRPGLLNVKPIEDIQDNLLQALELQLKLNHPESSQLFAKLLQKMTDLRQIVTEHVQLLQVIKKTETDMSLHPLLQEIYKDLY
Peroxisome proliferator-activated receptor gamma/Nuclear receptor corepressor 2, sequence (Q9Y618 whole entry): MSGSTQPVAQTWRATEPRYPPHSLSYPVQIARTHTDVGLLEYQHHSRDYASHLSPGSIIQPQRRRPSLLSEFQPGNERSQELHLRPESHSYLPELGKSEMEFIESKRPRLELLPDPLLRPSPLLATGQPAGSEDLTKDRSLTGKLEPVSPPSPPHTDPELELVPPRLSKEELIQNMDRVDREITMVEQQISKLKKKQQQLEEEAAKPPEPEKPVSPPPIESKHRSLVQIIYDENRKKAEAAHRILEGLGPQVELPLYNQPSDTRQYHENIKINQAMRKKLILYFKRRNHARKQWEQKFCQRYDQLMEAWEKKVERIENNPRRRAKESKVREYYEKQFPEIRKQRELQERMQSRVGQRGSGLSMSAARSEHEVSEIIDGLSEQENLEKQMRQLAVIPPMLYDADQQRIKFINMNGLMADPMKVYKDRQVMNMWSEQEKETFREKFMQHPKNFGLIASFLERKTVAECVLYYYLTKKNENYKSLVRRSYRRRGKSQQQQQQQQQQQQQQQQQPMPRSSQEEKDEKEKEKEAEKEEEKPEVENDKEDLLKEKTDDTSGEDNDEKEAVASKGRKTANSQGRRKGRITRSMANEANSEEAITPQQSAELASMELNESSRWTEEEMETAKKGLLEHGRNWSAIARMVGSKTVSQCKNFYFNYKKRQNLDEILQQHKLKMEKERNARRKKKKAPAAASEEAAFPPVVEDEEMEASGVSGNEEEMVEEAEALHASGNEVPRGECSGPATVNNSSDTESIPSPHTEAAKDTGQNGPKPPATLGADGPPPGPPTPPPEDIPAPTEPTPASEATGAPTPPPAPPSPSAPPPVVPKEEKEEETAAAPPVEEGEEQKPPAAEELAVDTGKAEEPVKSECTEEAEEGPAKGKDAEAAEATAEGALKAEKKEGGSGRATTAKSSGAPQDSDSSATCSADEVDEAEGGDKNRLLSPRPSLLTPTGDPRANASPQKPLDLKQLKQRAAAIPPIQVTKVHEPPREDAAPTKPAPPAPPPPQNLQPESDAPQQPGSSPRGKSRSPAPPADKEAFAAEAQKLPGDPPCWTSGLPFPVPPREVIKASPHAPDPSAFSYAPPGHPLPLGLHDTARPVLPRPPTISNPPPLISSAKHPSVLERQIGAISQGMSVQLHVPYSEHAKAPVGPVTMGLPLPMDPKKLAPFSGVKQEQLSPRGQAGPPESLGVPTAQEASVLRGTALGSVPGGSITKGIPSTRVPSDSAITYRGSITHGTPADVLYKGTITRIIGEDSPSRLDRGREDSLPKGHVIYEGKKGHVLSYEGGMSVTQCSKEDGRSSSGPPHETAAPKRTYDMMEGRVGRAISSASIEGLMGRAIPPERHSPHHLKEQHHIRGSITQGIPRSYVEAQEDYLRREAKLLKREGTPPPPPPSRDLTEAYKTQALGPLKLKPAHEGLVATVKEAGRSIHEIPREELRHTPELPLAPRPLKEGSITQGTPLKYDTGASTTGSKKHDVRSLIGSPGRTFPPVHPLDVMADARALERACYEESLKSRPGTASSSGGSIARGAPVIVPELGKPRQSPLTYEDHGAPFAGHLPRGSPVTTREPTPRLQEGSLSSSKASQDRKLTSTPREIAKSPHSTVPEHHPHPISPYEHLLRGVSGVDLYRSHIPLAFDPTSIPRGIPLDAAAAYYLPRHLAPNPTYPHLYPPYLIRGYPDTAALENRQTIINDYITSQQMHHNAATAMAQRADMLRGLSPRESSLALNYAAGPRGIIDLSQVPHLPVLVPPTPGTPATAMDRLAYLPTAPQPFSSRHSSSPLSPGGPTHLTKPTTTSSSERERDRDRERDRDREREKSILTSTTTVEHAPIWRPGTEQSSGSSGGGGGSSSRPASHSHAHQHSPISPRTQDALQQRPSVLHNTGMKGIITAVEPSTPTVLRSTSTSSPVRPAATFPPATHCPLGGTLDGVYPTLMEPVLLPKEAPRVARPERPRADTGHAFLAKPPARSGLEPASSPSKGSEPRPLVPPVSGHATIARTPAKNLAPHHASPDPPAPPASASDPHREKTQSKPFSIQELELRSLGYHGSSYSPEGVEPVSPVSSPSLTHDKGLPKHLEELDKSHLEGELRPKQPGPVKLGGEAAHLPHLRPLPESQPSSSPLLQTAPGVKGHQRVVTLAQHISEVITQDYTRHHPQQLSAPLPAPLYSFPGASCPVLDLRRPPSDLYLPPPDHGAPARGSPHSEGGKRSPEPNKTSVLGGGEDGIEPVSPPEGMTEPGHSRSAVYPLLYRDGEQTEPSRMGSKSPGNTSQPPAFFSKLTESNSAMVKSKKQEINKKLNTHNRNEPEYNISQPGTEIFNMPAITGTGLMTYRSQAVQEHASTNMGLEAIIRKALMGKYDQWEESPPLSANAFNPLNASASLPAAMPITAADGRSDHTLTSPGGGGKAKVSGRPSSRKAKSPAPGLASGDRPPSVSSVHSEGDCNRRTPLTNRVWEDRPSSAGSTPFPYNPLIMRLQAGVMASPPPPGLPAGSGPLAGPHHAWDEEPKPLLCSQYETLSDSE

Experiment [2] deals with T1, Voltage-gated N-type calcium channel alpha-1B subunit/Amyloid beta A4 precursor protein-binding family A member 1 (Homo sapiens, UniProt Q00975+Q02410). Type of experiment: protein assay.
Another experiment has as its target T2, Streptokinase A (Streptococcus pyogenes serotype M1, UniProt P10520).
T2 sequence (P10520 whole entry): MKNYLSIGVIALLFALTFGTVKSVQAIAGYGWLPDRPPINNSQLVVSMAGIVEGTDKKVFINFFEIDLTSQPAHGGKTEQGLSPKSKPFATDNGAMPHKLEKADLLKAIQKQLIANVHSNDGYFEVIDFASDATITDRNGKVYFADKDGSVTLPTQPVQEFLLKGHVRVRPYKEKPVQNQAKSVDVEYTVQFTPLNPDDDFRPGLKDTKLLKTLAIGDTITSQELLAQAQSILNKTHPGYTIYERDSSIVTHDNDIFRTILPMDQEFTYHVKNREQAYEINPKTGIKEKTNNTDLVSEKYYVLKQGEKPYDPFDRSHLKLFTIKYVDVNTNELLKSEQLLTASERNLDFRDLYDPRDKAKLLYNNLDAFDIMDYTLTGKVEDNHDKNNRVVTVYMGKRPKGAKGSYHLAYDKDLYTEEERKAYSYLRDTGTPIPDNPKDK
Nature of the experiment: viability-normalized secreted streptokinase activity reduction – plasminogen activation absorbance, OD405, dose response (AID 1914).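 Further: secreted streptokinase activity via plasminogen activation per viability signal from cell pellet.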 The format is functional, Streptococcus pyogenes M1 GAS.

The next experiment concerns Streptococcus. As to the kind of experiment: GAS UMAA2166 growth inhibition – luminescence, BacTiterGlo, counter-screen for streptokinase expression inhibitor project, dose response (AID 1915).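 Further: potency for reduction of bacterial viability or growth.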 Type of experiment: functional, organism-based.
The target of experiment [3] is T3, Photoreceptor-specific nuclear receptor (Homo sapiens, UniProt Q9Y5X4). As to the kind of experiment: ligands suppressing NR2E3 nuclear receptor activity – biochemical, TR-FRET, dose response (AID 463256). The format is functional. On the technique in general: In TR-FRET formats the signal depends on donor and acceptor labels being close together.
T3 sequence (Q9Y5X4 whole entry): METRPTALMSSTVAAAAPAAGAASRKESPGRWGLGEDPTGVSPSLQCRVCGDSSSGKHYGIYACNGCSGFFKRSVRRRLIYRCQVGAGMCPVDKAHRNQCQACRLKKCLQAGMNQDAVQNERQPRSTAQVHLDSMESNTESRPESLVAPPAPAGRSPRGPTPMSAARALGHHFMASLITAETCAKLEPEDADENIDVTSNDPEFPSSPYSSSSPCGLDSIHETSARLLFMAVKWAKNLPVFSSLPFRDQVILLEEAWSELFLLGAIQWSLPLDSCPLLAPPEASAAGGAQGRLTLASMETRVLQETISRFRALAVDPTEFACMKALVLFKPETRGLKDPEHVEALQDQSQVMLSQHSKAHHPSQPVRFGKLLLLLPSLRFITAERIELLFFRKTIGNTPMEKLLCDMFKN
For experiment [4], the target named is T3, Photoreceptor-specific nuclear receptor. Type of experiment: functional, cell-based.
For experiment [5], the target named is T1, Voltage-gated N-type calcium channel alpha-1B subunit/Amyloid beta A4 precursor protein-binding family A member 1. Type of experiment: protein assay. The source holds these as a separate data set.
The test system of experiment [6] is Streptococcus sp. 'group A'. Nature of the experiment: Streptococcus pyogenes SK(-)GAS viability under kanamycin – luminescence, BacTiterGlo, confirmation, counter-screen for streptokinase expression inhibitor project, dose response (AID 1900). Type of experiment: functional, organism-based.
The target of experiment [7] is T4, Ubiquitin-conjugating enzyme E2 N (Homo sapiens, UniProt P61088).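 Further: Dose-response confirmation in a TR-FRET assay detecting UBC13-driven polyubiquitin chain formation, inhibition measured.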
T4 sequence (P61088 whole entry): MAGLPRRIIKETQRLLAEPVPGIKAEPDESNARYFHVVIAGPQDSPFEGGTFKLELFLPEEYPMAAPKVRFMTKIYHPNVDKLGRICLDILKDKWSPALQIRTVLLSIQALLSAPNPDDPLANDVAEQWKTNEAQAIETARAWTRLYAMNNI
Type of experiment: functional.

Experiment [8] has as its system Vero. As to the kind of experiment: mammalian cell viability reduction – secondary assay, cytotoxicity control for West Nile virus antiviral project, dose response (AID 1650). Type of experiment: functional. The settings on record: Chlorocebus sabaeus.
Experiment [9] concerns the target Mitogen-activated protein kinase 10 (Homo sapiens, UniProt P53779). As to the kind of experiment: Dose response biochemical screening assay for inhibitors of c-Jun N-Terminal Kinase 3 (JNK3). [Related pubchem assays: 746 ].
For another experiment, the target named is Major prion protein (Homo sapiens, UniProt P04156). Type of experiment: functional, cell-based.
Experiment [10] has as its target T5, Small ubiquitin-related modifier 1 (Homo sapiens, UniProt P63165). As to the kind of experiment: SUMO1 protein-protein binding blockers, potency – biochemical, FRET, dose response (AID 624383). The settings on record: read-out: IC50_Mean. The format is functional.
Experiment [11] concerns the target T5, Small ubiquitin-related modifier 1. As to the kind of experiment: SUMO1 protein interaction blockers, potency – biochemical, fluorescence polarization, uHTS hits, dose response (AID 624382). Type of experiment: functional. Conditions: read-out: IC50_Mean. In general terms: Fluorescence polarisation rises when a labelled molecule tumbles more slowly, as on binding a larger partner.

Experiment [12] is described as follows: HIV-1 Vif–A3G interaction blockers – biochemical, TR-FRET, GST-Vif 1-94, biotin-A3G peptide, dose response retest, primary screen (AID 1117319).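 Further: TR-FRET signal of purified GST-Vif binding a biotinylated A3G peptide; inhibitors lower the FRET signal by blocking Vif and A3G binding.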 Type of experiment: functional.
Another experiment has as its target Beta-galactosidase (Escherichia coli, UniProt Q8VNN2). Nature of the experiment: detection-enzyme interference by beta-gal modulators – biochemical, E. coli enzyme, set 3, artefact control for CCR6 antagonist project, dose response (AID 504712). Type of experiment: functional.
Experiment [13] is described as follows: fluconazole-exposed Candida albicans growth modulators – fluorescence, retest, confirmation (AID 2467). The format is functional, cell-based.
Experiment [14] can be described thus: alpha-synuclein stem-loop luciferase translation blockers – H4 neuroglioma cells, luminescence, confirmation (AID 1988). Type of experiment: functional, cell-based.
The target in experiment [15] is Voltage-gated inwardly rectifying potassium channel KCNH2 (Homo sapiens, UniProt Q12809). Nature of the experiment: concentration-dependent hERG rescue from blockers – cell-based, thallium flux, dose response (AID 2121). Type of experiment: ADME.
A short description of experiment [16]: NIH-3T3 fibroblast cytotoxicity, dose response, cytotoxicity control, cell-based, fluorescence, Alamar Blue, secondary assay (AID 2327).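 Further: NIH-3T3 mouse fibroblasts cultured with fluconazole at 8 µg/mL.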 Type of experiment: functional.
Experiment [17] is described as follows: luciferase reporter signal suppression in cells – H4 neuroglioma cells, luminescence, dose response (AID 1990). Type of experiment: functional, cell-based.
For experiment [18], the system named is Vero. As to the kind of experiment: viability of Vero cells under compound – cytotoxicity control for flavivirus capping enzyme inhibitors (AID 588742). Type of experiment: functional. Conditions: Chlorocebus sabaeus.
The nature of experiment [19]: Luminescence Cell-Based Dose Response HTS to Identify Inhibitors of 5'UTR Stem-Loop Driven Prion Protein mRNA Translation in H4 Neuroglioblastoma Cells. [Related pubchem assays: 1827 (Project Summary), 1813 (Primary HTS)]. Type of experiment: functional.
Experiment [20] is described as follows: microbe, parasite or virus in culture. Type of experiment: functional. Conditions: Mycobacterium tuberculosis.
The target of experiment [21] is 5-hydroxytryptamine receptor 1A (Homo sapiens, UniProt P08908). The format is functional.

Active and inactive are the calls of the source.

By EC50 is commonly meant the concentration needed to bring the measured effect to its halfway point.

T5 sequence (P63165 whole entry): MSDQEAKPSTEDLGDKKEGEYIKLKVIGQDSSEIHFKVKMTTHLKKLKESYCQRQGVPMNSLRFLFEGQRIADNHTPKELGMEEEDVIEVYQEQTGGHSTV
Mitogen-activated protein kinase 10, sequence (P53779 whole entry): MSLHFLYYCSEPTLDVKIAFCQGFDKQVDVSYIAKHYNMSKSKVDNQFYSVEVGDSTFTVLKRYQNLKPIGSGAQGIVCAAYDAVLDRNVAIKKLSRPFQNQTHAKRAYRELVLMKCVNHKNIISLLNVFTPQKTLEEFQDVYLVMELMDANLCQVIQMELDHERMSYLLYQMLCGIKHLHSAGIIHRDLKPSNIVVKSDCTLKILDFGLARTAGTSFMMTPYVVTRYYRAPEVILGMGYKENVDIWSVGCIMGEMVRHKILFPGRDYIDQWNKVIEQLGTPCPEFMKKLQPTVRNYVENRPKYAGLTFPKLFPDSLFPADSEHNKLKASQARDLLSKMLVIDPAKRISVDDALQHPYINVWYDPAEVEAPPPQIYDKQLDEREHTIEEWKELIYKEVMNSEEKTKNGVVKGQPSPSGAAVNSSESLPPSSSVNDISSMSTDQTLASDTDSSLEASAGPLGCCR
Beta-galactosidase, sequence (Q8VNN2 whole entry): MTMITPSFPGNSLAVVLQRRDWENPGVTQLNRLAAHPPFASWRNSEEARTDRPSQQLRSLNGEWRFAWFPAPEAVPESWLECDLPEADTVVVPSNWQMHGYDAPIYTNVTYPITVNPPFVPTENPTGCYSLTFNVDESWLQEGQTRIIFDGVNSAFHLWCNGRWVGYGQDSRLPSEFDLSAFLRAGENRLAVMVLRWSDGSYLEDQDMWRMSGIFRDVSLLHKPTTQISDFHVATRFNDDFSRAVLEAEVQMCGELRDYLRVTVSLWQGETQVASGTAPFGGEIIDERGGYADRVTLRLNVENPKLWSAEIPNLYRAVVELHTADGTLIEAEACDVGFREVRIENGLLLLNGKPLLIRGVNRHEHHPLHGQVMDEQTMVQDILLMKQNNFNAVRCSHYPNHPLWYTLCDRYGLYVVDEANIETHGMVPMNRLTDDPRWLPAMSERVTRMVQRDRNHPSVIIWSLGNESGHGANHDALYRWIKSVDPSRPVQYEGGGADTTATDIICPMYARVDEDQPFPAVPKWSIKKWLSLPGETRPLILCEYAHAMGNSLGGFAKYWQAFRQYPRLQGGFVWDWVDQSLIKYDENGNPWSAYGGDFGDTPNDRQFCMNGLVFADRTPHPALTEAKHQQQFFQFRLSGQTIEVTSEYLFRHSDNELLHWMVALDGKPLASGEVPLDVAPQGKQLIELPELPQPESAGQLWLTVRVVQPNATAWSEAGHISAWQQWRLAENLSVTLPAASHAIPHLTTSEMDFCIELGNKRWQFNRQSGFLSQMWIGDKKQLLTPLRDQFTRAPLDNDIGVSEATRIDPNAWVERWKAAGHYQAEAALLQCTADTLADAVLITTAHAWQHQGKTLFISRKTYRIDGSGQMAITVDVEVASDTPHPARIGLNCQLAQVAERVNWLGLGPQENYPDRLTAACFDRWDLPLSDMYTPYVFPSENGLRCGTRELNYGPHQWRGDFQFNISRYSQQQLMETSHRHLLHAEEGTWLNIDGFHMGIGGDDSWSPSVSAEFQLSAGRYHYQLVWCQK

On to `Cc1cccc2c1NC(=O)/C2=C1\Nc2ccccc2\C1=N/OCCN1CCNCC1`, for which the IC50 in the experiment with Danio rerio was 6.32 µM (active).

With `Cc1ccnc(NC(=S)N2CCN(c3cccc(C(F)(F)F)c3)CC2)c1`, the IC50 was > 39.9 µM (not active) in experiment [1]; > 50 µM (inactive) in experiment [2]; > 39.9 µM (not active) in [3]; 1.76 µM (active) in experiment [4]; 11.6 µM (active) in [5]. Also, the EC50 on Streptokinase A is > 150 µM (not active); with Streptococcus, 22.4 µM (active); in experiment [6], 1.66 µM (active).

Consider `CCCN(CCC)CCCNC(=O)c1cc2c(=O)n(CC)c3ccccc3c2s1`, for which the IC50 in experiment [7] is > 20 µM (inactive). In the experiment on Vero [8], the CC50 is 18.8 µM (active).

Turning to `Cc1nn(C(C)C(=O)O)c(=O)c2c1sc1ccccc12` (configuration not stated), the IC50 was > 93.1 µM (not active) in [9], 8.45 µM (active) on Major prion protein and > 138 µM (inactive) in the experiment “cells”.

Turning to `CCCN1Cc2cccc(C(=O)NCc3ccccc3)c2C1=O`, the IC50 in [9] is listed as 57.8 µM (not active).

Consider `Cc1nc2ccc3nc(NC(=O)c4ccco4)sc3c2s1`, for which the IC50 in [1] was 4.28 µM (active); in [10] it was 12.1 µM (active); in experiment [3], 4.28 µM (active); in experiment [11], > 66.6 µM (inactive).

On to `CCC1S/C(=C(\C#N)C(=O)NCc2ccco2)N(c2ccc(F)cc2)C1=O` (configuration not stated), for which, in experiment [12], the IC50 was > 100 µM (active).

Consider `CCc1ccc(/C=C/C(=O)c2cc(Br)ccc(=O)c2O)cc1`, for which the IC50 at Beta-galactosidase was > 66.6 µM (inactive). Also, the EC50 is 1.52 µM (active) in [13]; 15.5 µM (active) in experiment [14]; 2.6 µM (active) in the experiment on Streptococcus; 1.15 µM (active) in experiment [15]; 15.5 µM (inconclusive) in experiment [16]; > 120 µM (not active) in [17]. In addition, the EC50 is 15 µM (active) in experiment [19] and 1.8 µM (active) in [6]. The CC50 with Vero [18] is 13.5 µM (active); in experiment [20], 11.5 µM (active).

Take `Cc1noc(C)c1COc1ccc(C(=O)OC(C)C(=O)Nc2ccc(N3CCOCC3)cc2)cc1` (configuration not stated): the EC50 in [21] was > 50 µM (not active).

The values are drawn from ChEMBL document CHEMBL1201862, “PubChem BioAssay data set” (2004).
